The values below come from PMC5764959, “Signaling ammonium across membranes through an ammonium sensor histidine kinase” (Nature Communications, 2018).

The target in test [1] is T1, Ks-Amt5 (ammonium sensor histidine kinase, HK domain) (Candidatus Kuenenia stuttgartensis, UniProt Q1Q357).
T1 construct: gene amtb; Ks-Amt5^426–679 (soluble HK domain)
The test is described as follows: SAXS, compaction of the HK domain on nucleotide addition. The class given is binding.

The target of test [2] is T1, Ks-Amt5 (ammonium sensor histidine kinase, HK domain). In words: isothermal titration calorimetry (also SAXS and […] autophosphorylation). The class given is binding. (ITC needs no label: the signal is the heat of the interaction.)
Test [3] shares this target. In words: isothermal titration calorimetry. The class given is binding.
For test [4], the target named is T2, Ks-Amt5 (ammonium sensor/transducer) (Candidatus Kuenenia stuttgartensis, UniProt Q1Q357). In words: microscale thermophoresis (weak; no electrogenic response). Also noted: gene amtb; Ks-Amt5. It is filed as binding. In general terms: MST reads how a fluorescent partner responds to local heating, with and without ligand.
T2 sequence (Q1Q357 1-679): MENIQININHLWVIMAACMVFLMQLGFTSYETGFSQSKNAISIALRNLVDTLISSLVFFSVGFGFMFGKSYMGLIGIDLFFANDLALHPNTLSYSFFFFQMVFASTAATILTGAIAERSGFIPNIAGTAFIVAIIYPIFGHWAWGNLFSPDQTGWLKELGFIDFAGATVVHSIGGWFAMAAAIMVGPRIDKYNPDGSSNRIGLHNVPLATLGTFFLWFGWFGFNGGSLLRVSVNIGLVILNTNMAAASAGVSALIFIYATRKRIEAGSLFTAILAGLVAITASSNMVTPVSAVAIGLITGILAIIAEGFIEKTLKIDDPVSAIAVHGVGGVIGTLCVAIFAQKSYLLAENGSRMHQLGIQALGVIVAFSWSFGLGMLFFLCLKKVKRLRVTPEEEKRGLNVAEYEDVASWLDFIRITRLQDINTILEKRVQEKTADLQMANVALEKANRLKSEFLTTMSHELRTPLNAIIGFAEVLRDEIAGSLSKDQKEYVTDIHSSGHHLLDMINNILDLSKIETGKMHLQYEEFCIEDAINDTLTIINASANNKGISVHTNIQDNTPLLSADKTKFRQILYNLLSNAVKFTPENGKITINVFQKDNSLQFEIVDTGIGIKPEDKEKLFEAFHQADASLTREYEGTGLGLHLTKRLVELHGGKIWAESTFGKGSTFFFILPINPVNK
Test [5] concerns the target T2, Ks-Amt5 (ammonium sensor/transducer). In words: biochemical. Also noted: gene amtb.
The target of test [6] is Ks-Amt5 (kust_3690), full-length ammonium sensor histidine kinase (Candidatus Kuenenia stuttgartiensis). In words: SAXS; full-length Ks-Amt5 in 0.09 % CYMAL-5; batch or SEC-SAXS (Superdex 200 10/300); buffer C with 5 % glycerol; 20 °C; molecular weight from forward scattering I(0).
The target is the same in test [7]. The test is described as follows: SEC; Superdex 200 26/60; buffer C (20 mM HEPES/NaOH pH 7.5 or 20 mM Tris/HCl pH 8.0, 100 mM NaCl) with 5-10 % glycerol and detergent; 4 °C; self-association of the detergent-solubilized protein.
The target is the same in test [8]. In words: crystal structure; full-length Ks-Amt5; space group P6_(3); 1.98 Å; only the Amt domain (residues 1-405) modelled, HK domain disordered.

T1 sequence (Q1Q357 entry or part of it): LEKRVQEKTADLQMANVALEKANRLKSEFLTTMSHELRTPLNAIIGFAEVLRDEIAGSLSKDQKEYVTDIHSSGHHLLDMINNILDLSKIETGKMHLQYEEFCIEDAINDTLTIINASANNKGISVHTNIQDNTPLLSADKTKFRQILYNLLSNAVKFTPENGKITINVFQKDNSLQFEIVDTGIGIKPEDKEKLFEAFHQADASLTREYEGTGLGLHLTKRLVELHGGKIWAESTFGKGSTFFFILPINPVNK

On to `Nc1ncnc2c1ncn2[C@@H]1O[C@H](COP(=O)(O)OP(=O)(O)CP(=O)(O)O)[C@@H](O)[C@H]1O` [APPCP], for which the “SAXS, compaction of the HK domain on nucleotide addition” value in test [1] was “change toward a more compact and less-flexible structure when either APPCP or ATP are added to the HK domain”. In general, Kd refers to the free concentration of one partner at which half of the binding sites on the other are occupied at equilibrium, for simple one-to-one binding. A high value points to a looser complex. Turning to `Nc1ncnc2c1ncn2[C@@H]1O[C@H](COP(=O)(O)OP(=O)(O)OP(=O)(O)O)[C@@H](O)[C@H]1O` [ATP], binding in test [2] was characterised by a dissociation constant (Kd) of 11.16 ± 0.03 µM. Regarding `Nc1ncnc2c1ncn2[C@@H]1O[C@H](CO[P@](=O)(O)O[P@](=O)(O)O[P@@](=O)(O)S)[C@@H](O)[C@H]1O` [ATPγS], binding in test [3] was characterised by a dissociation constant (Kd) of 36.74 ± 0.05 µM.

In test [4], `CN` [MA, methylammonium] returned a Kd of 2350 ± 440 µM. As to `N` [NH4^+], the affinity in test [5], expressed as Kd, was 41 ± 24 µM. What is called stoichiometry N is the number of molecules, sites or subunits per partner or assembly. Turning to “Ks-Amt5 (kust_3690), full-length ammonium sensor histidine kinase (natural protein)”, the stoichiometry N in test [6], in test [7] and in test [8] was 3 throughout.
